Source: patent US10376557B2, “Peptide fragments for inducing synthesis of extracellular matrix proteins” (HELIX BIOMEDIX, INC., priority 2006, dated 2019)
Ends that are not written are not given here.

System: Human dermal fibroblasts
Assay: SIRCOL collagen assay: soluble collagen released by dermal fibroblasts incubated with peptides
Type: cell-based
Conditions: for Collagen (μg) / Collagen: * = may not be significant, detection limit 2.5 μg; for Increase in collagen release at 48 h v. 24 h / Significant release of collagen at 24 h and 48 h / Decrease in collagen release at 48 h v. 24 h: check mark = yes; for Significant release of collagen at 24 h and 48 h: 25 μg/mL considered significant
Description: Several sequences identified in Examples 1 and 2 were synthesized using standard peptide chemistry and assayed for the stimulation of collagen from dermal fibroblasts. The synthesized peptides were amidated at the C-terminus, which rendered the tetrapeptides less susceptible to protease degradation and increased their solubility compared to the free acid forms. Human dermal fibroblasts were incubated in 96-well plates at 37° C. and 5% CO2 for 24 and 48 hours in 150 μL complete cell culture media (Cascade Biologics, Portland, Oreg.; Cat. No. M-106-500), supplemented with Low Serum Growth Supplement (Cascade Biologics, Portland, Oreg.; Cat. No. […] Each well was seeded with 10,000 cells. Following the incubation, 100-μL medium samples were recovered from each well and assayed for collagen production
The assays were performed by Tebu-bio Laboratories (France) using the SIRCOL™ Collagen Assay Kit (Biocolor Assays, UK) following the manufacturer's protocol. The SIRCOL™ Collagen Assay is a quantitative dye-binding method designed for the analysis of soluble collagens released into culture medium by mammalian cells during in vitro culture. The collagen of the tested samples binds to the anionic SIRCOL™ dye. The collagen-dye complexes precipitate out of solution and are pelleted by centrifugation. The recovered collagen-dye pellet was dissolved in an alkaline solution prior to absorbance measurements. Duplicate measurements were taken at the 24 and 48 hour times from two separate samples. The four measurements for each sample were averaged. The absorbance of reagent blanks, collagen standards, and samples were measured at 560 nm. The reagent blank absorbance was subtracted from the absorbance from each sample at 24 and 48 hours.
Two separate data sets were used to generate two collagen standard calibration curves. The first calibration curve was generated for purposes of calculating the quantity of collagen in samples H6 (combination of SEQ ID NOs:1-4), […] (SEQ ID NOs:1-8, respectively) and H15 (combination of SEQ ID NOs:5-8). The second calibration curve was generated for calculating the quantity of collagen in samples H16 (SEQ ID NO:9), H21-23 (SEQ ID NOs:10-12, respectively), H25-26 (SEQ ID NOs:13-14, respectively), or H29-30 (SEQ ID NOs:15-16, respectively), H32 (SEQ ID NO:17), H33 (combination of SEQ ID NOs:9-12), H34 (combination of SEQ ID NOs:11-14), H35 (combination of SEQ ID NOs:13-16), H36 (combination of SEQ ID NOs:1, 6, 5, 8), H37 (SEQ ID NO: 17) and H38 (SEQ ID NO:8) from the absorbance measurements was created by plotting the Abs560nm of the known collagen standards versus the respective concentrations of the collagen standards (in micrograms) each time a series of assays were performed. With respect to each data set, the same calibration curve was used for samples taken at the 24 and 48 hour times (Tables 2A and 2B). Accordingly, different standard curves were prepared immediately prior to performing each series of assays.
A linear regression was performed from plotting the Abs560nm values versus concentrations of the respective collagen standards using MICROSOFT EXCEL™. […] As the results were identical, only the 24-hour time period was used for the second series calibration curves. The formula of the line obtained on assay date 1 and assay date 2 of the second series of samples was y=0.0178x and y=0.0162x, respectively. The peptide LL-37 (SEQ ID NO:18) was used as a positive control as it has been widely reported to have an impact upon wound healing in man (Heilborn et al., The Cathelicidin Anti-Microbial Peptide LL-37 Is Involved In The Re-Epithelialization Of Human Skin Wounds And Is Lacking In Chronic Ulcer Epithelium, J. Invest. Dermato. 120:379-89 (2003). The assay detection limit defined by the manufacturer is 2.5 μg. […]

[1] = 24 hours, peptide 50 μg/mL, 100 μL medium sample
[2] = 48 hours, peptide 50 μg/mL, 100 μL medium sample
[3] = peptide 0.3 μg/mL (per Table 5)
[4] = 24 hours, peptide 0.3 μg/mL, second series
[5] = 48 hours, peptide 0.3 μg/mL, second series
[6] = 24 hours, peptide 50 μg/mL, second series
[7] = 48 hours, peptide 50 μg/mL, second series

Substance | Released collagen (μg/mL) 24 h (peptide 50 μg/mL (per Table 5)) [µg/mL] | Average (A560 nm) (24 hours, peptide 50 μg/mL) | Average minus blank (A560 nm) (24 hours, peptide 50 μg/mL) | Collagen (μg) [1] | Collagen produced (μg/mL) 24 hrs ([Peptide] 50 μg/mL) [µg/mL] | Released collagen (μg/mL) 48 h (peptide 50 μg/mL (per Table 5)) [µg/mL] | Average (A560 nm) (48 hours, peptide 50 μg/mL) | Average minus blank (A560 nm) (48 hours, peptide 50 μg/mL) | Collagen produced (μg/mL) 48 hrs ([Peptide] 50 μg/mL) [µg/mL] | Increase in collagen release at 48 h v. 24 h (peptide 50 μg/mL) | Collagen (μg) [2] | Decrease in collagen release at 48 h v. 24 h (peptide 50 μg/mL) | Average (A560 nm) [6] | Average minus blank (A560 nm) [6] | Average (A560 nm) [7] | Average minus blank (A560 nm) [7] | Collagen (μg) [7] | also measured
GAGP (Synthetic Peptide H12) | 2 | 0.08 | 0.00 | 0.2* μg | 2 | 37 | 0.17 | 0.05 | 37 | ✓ | – | – | – | – | – | – | – | collagen production at 48 hours (in words) (48 hours): good results; Collagen [2]: 3.7 µg
GEKG (Synthetic Peptide H14) [H14 = tested at 50 μg/mL, H38 = same peptide tested at 0.3 μg/mL] | 30 | 0.12 | 0.04 | – | 30 | 26 | 0.15 | 0.03 | 26 | – | – | – | – | – | – | – | – | time for which collagen production was substantially maintained: at least 48 hours; collagen stimulation at the lower concentration (in words) (0.3 μg/mL versus 50 μg/mL): not diminished; collagen production compared to KTTKS (24 and 48 hours): stimulated more collagen production than the KTTKS; Released collagen (μg/mL) 24 h [3]: 29 µg/mL; amount of collagen induced compared to LL37 (24 hours): about the same amount of collagen as LL37; Average (A560 nm) [4]: 0.13; Average minus blank (A560 nm) [4]: 0.05; Collagen [4]: 2.9 µg; Collagen [1]: 3.0 µg; Collagen produced (μg/mL) 24 hrs ([Peptide] 0.3 μg/mL): 29 µg/mL; Released collagen (μg/mL) 48 h [3]: 28 µg/mL; Average (A560 nm) [5]: 0.11; Average minus blank (A560 nm) [5]: 0.05; Collagen [5]: 2.8 µg; Collagen [2]: 2.6 µg; Collagen produced (μg/mL) 48 hrs ([Peptide] 0.3 μg/mL): 28 µg/mL; Significant release of collagen at 24 h and 48 h (peptide 0.3 μg/mL): ✓; Significant release of collagen at 24 h and 48 h (peptide 50 μg/mL): ✓; maximal stimulating concentration (collagen production): ≤ 0.3 µg/mL
GFPG (Synthetic Peptide H8) | 15 | 0.10 | 0.02 | 1.5* μg | 15 | 9 | 0.13 | 0.01 | 9 | – | 0.9* μg | – | – | – | – | – | – | –
GPPG (Synthetic Peptide H13) | 18 | 0.10 | 0.02 | 1.8* μg | 18 | 2 | 0.12 | 0.00 | 2 | – | 0.2* μg | – | – | – | – | – | – | –
GSPG (Synthetic Peptide H9) | 35 | 0.13 | 0.05 | – | 35 | 0 | 0.09 | 0.00 | 0 | – | 0.0* μg | ✓ | – | – | – | – | – | Collagen [1]: 3.5 µg
KTTKS [H32, reference compound] | – | – | – | – | – | 12 | – | – | 12 | – | – | – | 0.07 | −0.01 | 0.08 | 0.02 | 1.2* μg | Released collagen (μg/mL) 24 h [3]: 11 µg/mL; Average (A560 nm) [4]: 0.10; Average minus blank (A560 nm) [4]: 0.02; Collagen (μg) [4]: 1.1* μg; Collagen (μg) [6]: −0.5* μg; Collagen produced (μg/mL) 24 hrs ([Peptide] 0.3 μg/mL): 11 µg/mL; Released collagen (μg/mL) 48 h [3]: 22 µg/mL; Average (A560 nm) [5]: 0.10; Average minus blank (A560 nm) [5]: 0.04; Collagen (μg) [5]: 2.2* μg; Collagen produced (μg/mL) 48 hrs ([Peptide] 0.3 μg/mL): 22 µg/mL; Increase in collagen release at 48 h v. 24 h (peptide 0.3 μg/mL): ✓
PEGP (PEGP-NH2) [H7] | 0 | 0.08 | 0.00 | 0.0* μg | 0 | 54 | 0.19 | 0.07 | 54 | ✓ | – | – | – | – | – | – | – | Collagen [2]: 5.4 µg
PEKP (PEKP-NH2) [H16] | 31 | – | – | – | 31 | 3 | – | – | 3 | – | – | ✓ | 0.14 | 0.06 | 0.06 | 0.00 | 0.3* μg | Collagen [6]: 3.1 µg
PGNP (PGNP-NH2) [H30] | 9 | – | – | – | 9 | 20 | – | – | 20 | ✓ | – | – | 0.10 | 0.02 | 0.09 | 0.03 | 2.0* μg | Collagen (μg) [6]: 0.9* μg
PGPR (Synthetic Peptide H10) | 34 | 0.12 | 0.04 | – | 34 | 0 | 0.11 | 0.00 | 0 | – | 0.0* μg | ✓ | – | – | – | – | – | Collagen [1]: 3.4 µg
PGQP (PGQP-NH2) [H22] | 33 | – | – | – | 33 | 21 | – | – | 21 | – | – | ✓ | 0.14 | 0.06 | 0.09 | 0.03 | 2.1* μg | Collagen [6]: 3.3 µg
PGTP (PGTP-NH2) [H23] | 1 | – | – | – | 1 | 17 | – | – | 17 | ✓ | – | – | 0.08 | 0.00 | 0.09 | 0.03 | 1.7* μg | Collagen (μg) [6]: 0.1* μg
